{
  "source": "patent US20210069295A1",
  "about": "“GALECTINS CONTROL MTOR IN RESPONSE TO ENDOMEMBRANE DAMAGE AND PROVIDE A MECHANISM AND TARGET FOR THE TREATMENT OF AUTOPHAGY-RELATED DISEASES” (STC. UNM, priority 2017, published 2021)",
  "tested_on": "LC3",
  "experiment": "Autophagy induction (LC3-II levels and LC3 puncta) in HEK293T cells",
  "assay_type": "cell-based",
  "settings": "SLC38A9 knockout and wild type HEK293T, 100 μM GPN",
  "method": "(A) Analysis of mTOR activity and autophagy induction in HEK293T cells (WT, wild type) and SLC38A9 knockout (SLC38A9 KO) HEK293T derivatives treated with 100 μM GPN in full medium for the indicated time points. mTOR activity was monitored by immunoblotting analysis of S6K1 phosphorylation at T389 (p-T389). Autophagy induction was monitored by immunoblotting analysis of LC3-II. (B) Analysis of autophagy induction in SLC38A9 KO cells treated with GPN. WT and SLC38A9-KO (SLCKO) HEK293T cells were treated with 100 μM GPN in full medium for 30 min, and LC3 puncta were quantified by HC. […] Data, means±SEM, n≥3 independent experiments (500 primary objects counted per well; ≥ 5 wells/sample per each experiment), **p<0.01, ANOVA. […] WT and SLC38A9 KO HEK293T cells were treated with 100 μM GPN for 1 h followed by 1 h washout in full medium. mTOR activity was monitored by immunoblotting analysis of S6K1 p-T389 and ULK1 p-S757 phosphorylation. Autophagy induction was monitored by immunoblotting analysis of LC3-II. […] Control and FLAG-SLC38A9 overexpressing HEK293T cells were treated with 100 μM GPN in full medium for 30 min, and LC3 puncta were quantified by HC. […] Data, means±SEM, n≥3 independent experiments (500 primary objects counted per well; ≥5 wells/sample per each experiment), **p<0.01, ANOVA. […]",
  "note": "Peptide text beside a SMILES is read from it.",
  "data": [
    {"smiles": "NCC(=O)N[C@@H](Cc1ccccc1)C(=O)Nc1ccc2ccccc2c1", "note": "[GPN, glycyl-L-phenylalanine 2-naphththylamide] (HELM PEPTIDE1{G.F.[c1ccc2cc(N[*:1])ccc2c1]}$$$$V2.0)", "values": [
      {"measurement": "LC3-II levels and LC3 puncta", "value": "increased robustly"}
    ]}
  ]
}
